As a reminder, the Ki is a measure of affinity in units of concentration, obtained from inhibition or displacement. A word on the inhibition: it is the drop in the measured response relative to a control, in per cent.

Molecules are shown by their SMILES.

The source of these data is article PMC4757823, “μ Opioid receptor: novel antagonists and structural modeling” (Scientific Reports, 2016).

The target of test [1] is T1, human MOR (Homo sapiens, UniProt P35372).
T1 construct: expressed in transfected cells; host or cells: CHO (Chinese hamster ovary) cells stably expressing human MOR; gift from Dr. Lawrence Toll, SRI International
In words: Radioligand MOR binding assay ([3H]DAMGO competition, CHO-hMOR membranes). The following applies: for inhibition at 10 µM: read-out: inhibition of [3H]DAMGO binding to the MOR.

Test [2] has as its target T1, human MOR. Put plainly: cAMP accumulation assay (GloSensor) in CHO-hMOR-p22F cells. Conditions: for inhibition of the forskolin-stimulated cAMP production: CHO-hMOR-p22F cells, agonist mode. It is filed as cell-based. How it is done:
Inhibition of the forskolin-stimulated intracellular cAMP accumulation in CHO cells co-expressing the hMOR and the cAMP biosensor GloSensor-22F (CHO-hMOR-p22F cells) was performed using the Glo-Sensor^TM cAMP assay (Promega), according to the manufacturer’s instructions. Cells were seeded in growth medium into 384-well plates at a density of 5,000 cells in 30 μL per well and incubated overnight. On the day of assay, culture media was removed, and cells were pre-equilibrated for 90 min with 4% v/v of the GloSensor cAMP reagent in reaction medium (20 mM HEPES, 1 × HBSS, pH 7.4) at 37 °C and 5% CO2. […] Forskolin (10 μM) was added to each well, and luminescence was measured after 20 min. All experiments were performed in triplicate and repeated at least three times.
A general note: Cyclic AMP is a second messenger, typically raised through Gs and lowered through Gi signalling.

In test [3] the target is T1, human MOR. In words: [35S]GTPγS binding assay in CHO-hMOR cell membranes. It is filed as biochemical. The following applies: for stimulation of [35S]GTPγS binding: CHO-hMOR membranes, agonist mode. The procedure: Determination of [^35S]GTPγS binding to CHO-hMOR cell membranes were performed as described previously. Cell membranes (5–10 μg protein), prepared as described for the radioligand MOR binding assay, were incubated in the absence or in the presence of test compound in the assay buffer (20 mM HEPES, 100 mM NaCl, 10 mM MgCl2, pH 7.4) containing [^35S]GTPγS (0.05 nM) and GDP (10 nM) in a total volume of 1.0 mL for 60 min at 25 °C. Nonspecific binding was determined using 10 μM GTPγS, and the basal binding was determined in the absence of test compound. Samples were filtered over glass fiber filters and counted as described for the radioligand binding assays. […] The antagonist equilibrium dissociation constant Ke for 4 was calculated using the equation Ke = [a]/(DR − 1), where “a” is the concentration of antagonist. All experiments were performed in duplicate and repeated at least three times.
(Binding of GTPγS marks nucleotide exchange on a G protein.)

The subject of test [4] is morphine-induced antinociception in mice. In words: Tail-flick test, antagonism of morphine-induced antinociception. It is filed as in vivo, mouse.
Test [5] has the same test system. In words: Acetic acid-induced writhing test, antagonism of morphine-induced antinociception. It is filed as in vivo, mouse. Conditions: s.c.
A further test concerns MOR. Conditions: concentration of 100 μM; cited from earlier work.
Test [6] concerns μ3 opioid receptor subtype. Also noted: method as in PMID 15580165. The following applies: human monocytes; cited from earlier work.
A further test concerns the target μ1 receptors. Also noted: method as in PMID 8069669. The following applies: lowering radioligand binding; cited from earlier work.
The target in another test is μ2 receptors. Also noted: method as in PMID 8069669. Conditions: lowering radioligand binding; cited from earlier work.
Another test relates to mouse tail-flick test. Also noted: method as in PMID 8069669. The following applies: cited from earlier work.

T1 sequence (P35372 whole entry): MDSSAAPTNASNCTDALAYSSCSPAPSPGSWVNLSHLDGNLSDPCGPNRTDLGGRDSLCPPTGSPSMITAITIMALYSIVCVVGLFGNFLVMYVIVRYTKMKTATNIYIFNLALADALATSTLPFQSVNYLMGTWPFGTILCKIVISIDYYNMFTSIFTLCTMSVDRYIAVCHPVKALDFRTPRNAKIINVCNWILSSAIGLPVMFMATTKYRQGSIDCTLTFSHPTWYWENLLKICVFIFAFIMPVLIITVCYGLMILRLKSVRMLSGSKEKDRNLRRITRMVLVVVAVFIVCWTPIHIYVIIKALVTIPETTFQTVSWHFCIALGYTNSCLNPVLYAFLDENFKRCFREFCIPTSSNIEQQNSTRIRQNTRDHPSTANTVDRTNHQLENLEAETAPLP

With `COc1ccc(S(=O)(=O)N2CCCN(c3c(Cl)cncc3Cl)CC2)cc1OC` [Compound 5], at human MOR [1], the Ki amounted to 7.01 µM and the inhibition at 10 µM was at least 50%. Moreover, the “inhibition of the forskolin-stimulated cAMP production” value on human MOR [2] was “not effective”. Also, on human MOR [3], the “stimulation of [35S]GTPγS binding” value is “none of the three ligands produced any increase”.

Consider `Cc1c(NC(=O)c2ccc(Cl)cc2)cc(-c2ccccc2)n1CCCN1CCOCC1` [Compound 3], for which, on human MOR [1], the inhibition constant Ki was determined as 10.7 µM and the inhibition at 10 µM was at least 50%. Also, at human MOR [2], the “inhibition of the forskolin-stimulated cAMP production” value is listed as “not effective”. In addition, the “stimulation of [35S]GTPγS binding” value on human MOR [3] is “none of the three ligands produced any increase”.

Consider `COc1cc2c(cc1OC)C(C)N(Cc1cc(C)c(O)c(C)c1)CC2` (stereo not drawn) [Compound 4], for which the “blockade of morphine's analgesic effect against thermal-induced nociception” value in test [4] (20 mg/kg s.c. pretreatment, 30 min prior to s.c. morphine) is on record as “complete blockade”. Also, the “effect on pain behavior when administered alone (thermal sensitivity)” value in test [4] (s.c., alone, vs. vehicle) is on record as “did not affect pain behavior”. On human MOR [1], the affinity corresponds to a Ki of 1.11 µM and the inhibition at 10 µM was at least 50%. Further, the “inhibition of the forskolin-stimulated cAMP production” value at human MOR [2] is “not effective”. Also, on human MOR [2] (DAMGO inhibition of forskolin-stimulated cAMP accumulation), the “rightward shift in the concentration-response for DAMGO” value was determined as 3 fold. In addition, the Kb at human MOR [2] (read-out: Ke) came to 8.03 ± 0.38 µM. In addition, the “stimulation of [35S]GTPγS binding” value on human MOR [3] is “none of the three ligands produced any increase”. Moreover, the Kb at human MOR [3] (read-out: antagonist equilibrium constant (Ke)) turned out to be 1.02 ± 0.25 µM. Besides, the “effect on pain behavior when administered alone (chemical sensitivity)” value in [5] (alone, vs. vehicle) is “did not affect pain behavior”. Moreover, the “reversal of morphine analgesia in the writhing test” value in test [5] (given 30 min prior to s.c. morphine) is “significant and dose-dependent reversal”.

Consider `COc1ccc(C[C@H]2c3cc(O)c(OC)cc3CCN2C)cc1O` [reticuline], for which, in the test on MOR, the “% of morphine effects” value is recorded as “ca. 16%”. Also, in test [6], the “binding to the μ3 opioid receptor subtype” value is listed as “no binding”.

Take `COc1ccc(CC2c3cc(OC)c(OC)cc3CCN2C)cc1OC` (stereo not drawn) [Laudanosine]: the Ki at μ1 receptors was 2.7 µM; on μ2 receptors it was 13 µM. Further, the antinociceptive effects result with mouse tail-flick test is given as “exert antinociceptive effects”.
